Source: patent publication US20210275518A1, “METHODS OF USING REBASTINIB IN THE TREATMENT OF DISORDERS” (Deciphera Pharmaceuticals, LLC, priority 2020, published 2021)

Experiments:
Format in all cases: in vivo, human
[1] = test system: advanced or metastatic solid tumors; assay: Phase 1b/2 study of rebastinib in combination with paclitaxel (Part 1; overall safety)
Excerpt: This is an open-label Phase 1b/2 multicenter study in patients with advanced or metastatic solid tumors where paclitaxel may be considered appropriate treatment. Rebastinib will be administered in combination with paclitaxel in repeated 28-day cycles to primarily assess the safety, tolerability and preliminary efficacy of the combination. Adverse events (AEs) will be assessed, and laboratory values, vital sign measurements, electrocardiograms (ECGs), ophthalmologic examinations, physical examinations and Eastern Cooperative Oncology Group (ECOG) Performance Status (PS) will be obtained to evaluate the safety and tolerability of rebastinib when administered in combination with paclitaxel. Pharmacokinetic (PK) and pharmacodynamic (PD) samples will be collected at pre-specified time points.
The study consists of two parts (Part 1 and Part 2). In Part 1, patients were assigned to one of two pre-defined dose levels of rebastinib (50 or 100 mg BID) in combination with paclitaxel administered by intravenous (IV) infusion at 80 mg/m^2. Paclitaxel is to be administered by IV infusion at 80 mg/m^2 over approximately 60 minutes on Day 1, Day 8 and Day 15 of repeated 28-day cycles. Rebastinib is to be administered orally prior to the paclitaxel infusion.
Each arm was planned to enroll at least 12 evaluable patients. Additionally, if rebastinib at 100 mg BID was deemed unsafe, an additional arm dosing at 75 mg BID of rebastinib in combination with paclitaxel may be initiated. Up to 36 evaluable patients were dosed in Part 1. Safety was continuously monitored, and any arm may be terminated early if deemed unsafe by the Sponsor.
Safety and tolerability, PK and PD, and preliminary efficacy data obtained in Part 1 was used to determine the RP2D. Data for at least 12 evaluable patients through Cycle 1 must be available in an arm to declare the dose as the RP2D. Patients must receive ≥80% of planned doses of rebastinib and paclitaxel in Cycle 1 to be considered as evaluable. Enrollment of patients was paused for determination of the RP2D prior to initiation of Part 2. An RP2D was chosen by the Sponsor in consultation with the Investigators.

[2] = test system: breast cancer, ovarian cancer, and mesothelioma; assay: Phase 1b/2 study of rebastinib in combination with carboplatin
Procedure: This is a Phase 1b/2 study where patients with mesothelioma are administered rebastinib in combination with carboplatin. The study follows a Simon 2-stage design at the MTD and R2PD. Safety and tolerability, PK and PD, and preliminary efficacy data was used to determine the RP2D. Upon determination of the RP2D or MTD, the Simon 2-stage design is initiated to dose evaluable patients using the RP2D or MTD across three indication-specific cohorts (breast cancer, ovarian cancer, and mesothelioma).
Each cohort initially enrolls up to 18 evaluable patients in the first stage. Patients must receive at least 1 dose of the combination and have 1 post-baseline assessment (including assessment of clinical progression), or be discontinued prior to the postbaseline disease assessment due to an AE at least possibly related to rebastinib, to be considered evaluable. Tumor response is assessed according to Response Evaluation Criteria in Solid Tumors (RECIST) Version 1.1. The decision to enroll patients beyond the first stage is based on response assessments obtained after the first post-dose response assessment of the last patient enrolled in the first stage of a cohort. […] If ≤4 responses are seen in a cohort, the cohort will be terminated. If >4 responses are seen prior to the last evaluable patient in the first stage, expanding the cohort may be triggered earlier. Enrollment in each cohort will pause between the first and second stage of the Simon two-stage for evaluation of response. Patients will receive study treatment until they develop progressive disease, experience unacceptable toxicity, or withdraw consent.
At a second time point, 22 patients were enrolled in the study (3 cohorts: 3 patients at rebastinib 50 mg BID+carboplatin AUC5, 14 patients at rebastinib 100 mg BID+carboplatin AUC5, and 5 pts at rebastinib 100 mg BID+carboplatin AUC6). The median age was 61 yrs. Most frequent diagnoses were breast cancer (n=5); neuroendocrine carcinoma (n=3); pancreatic adenocarcinoma, NSCLC, and cholangiocarcinoma (n=2 each). The median number of prior anti-cancer therapies was 4 (1, 12). Median duration of treatment was 8.4 weeks (0.9, 22.6).

[3] = test system: gynecologic carcinosarcoma; assay: Phase 1b/2 rebastinib + paclitaxel, Part 2 Cohort 5 (RECIST v1.1); conditions: Cycle 5, Day 1
Excerpt: Upon determination of the RP2D, Part 2 is initiated to dose up to 165 evaluable patients using the RP2D across five indication-specific cohorts. A Simon's two-stage design is applied to Part 2 to further evaluate the safety, tolerability, and preliminary efficacy of rebastinib in combination with paclitaxel in triple-negative breast (Cohort 1), inflammatory breast (Cohort 2), ovarian (Cohort 3), endometrial adenocarcinoma (Cohort 4), and gynecologic carcinosarcoma (Cohort 5) cancers. Each cohort initially enrolls up to 18 evaluable patients in the first stage. Patients must receive at least 1 dose of the combination and have 1 post-baseline assessment (including assessment of clinical progression) or be discontinued prior to the postbaseline disease assessment due to an AE at least possibly related to rebastinib, to be considered evaluable. Tumor response is assessed according to Response Evaluation Criteria in Solid Tumors (RECIST) Version 1.1. The decision to enroll patients beyond the first stage is based on response assessments obtained after the first post-dose response assessment of the last patient enrolled in the first stage of a cohort. […] If ≤4 responses are seen in a cohort, the cohort will be terminated. If >4 responses are seen prior to the last evaluable patient in the first stage, expanding the cohort may be triggered earlier. […]

[4] = time point 1, rebastinib and carboplatin combination

CNC(=O)c1cc(Oc2ccc(NC(=O)Nc3cc(C(C)(C)C)nn3-c3ccc4ncccc4c3)c(F)c2)ccn1 [rebastinib]
Partial response, patients ([1]; Part 1, rebastinib 50 mg BID with weekly paclitaxel 80 mg/m^2): 5 patients | Partial response, patients ([1]; Part 1, rebastinib 100 mg BID with weekly paclitaxel 80 mg/m^2): 3 patients | Partial response, patients total ([1]; Part 1, rebastinib 50 and 100 mg BID with weekly paclitaxel 80 mg/m^2): 8 patients | Tolerability ([1]; Part 1, rebastinib 50 and 100 mg BID with weekly paclitaxel 80 mg/m^2, patients with advanced tumors): generally well tolerated | Muscular weakness ([1]; rebastinib 100 mg BID with weekly paclitaxel 80 mg/m^2, required dose reduction to 50 mg BID): high incidence | Tolerability ([2]; time point 1, rebastinib 50 mg and 100 mg BID in combination with carboplatin AUC5): tolerated | Tolerability ([2]; time point 1, rebastinib 100 mg BID in combination with carboplatin AUC6 (3 patients)): tolerated | Muscular weakness [2, 4]: No muscular weakness | Response in the dose escalation cohorts [2, 4]: No response | Partial response (PR) ([2]; time point 2, 22 patients enrolled, rebastinib 50 or 100 mg BID + carboplatin AUC5 or AUC6, preliminary): 1 | Muscular weakness in the dose expansion cohort ([2]; time point 2, rebastinib 100 mg BID with carboplatin AUC5, RP2D adjusted to 50 mg BID): increased frequency | CBR at 6 weeks ([2]; time point 2, rebastinib + carboplatin, preliminary): 52% | Patients with partial response [3]: one
